Tests used:
Ah receptor [1] = test: Receptor capture assay employing anti-ARNT magnetic microparticles; format: biochemical; conditions: 1 μl of 1 nM beta-naphthoflavone
Method: Activation of the Ah receptor with dose was performed in a microtiter strip containing 50 μl of Ah receptor preparation, 1 μl of 200 μg/ml biotinylated ARNT, and 1 μl of 1 nM beta-naphthoflavone and incubated for 1 hr at 30° C. To minimize non-specific interactions, 1-2 μg of salmon sperm DNA was added to the activated complex, along with NaCl to a final concentration of 60 mM. After 10 in room temperature, the nucleic acid-tracer (50 fmole) was added, and the reaction allowed to incubate for an additional 10 min at room temperature. Five μl of a 10% solution of microparticles coated with anti-ARNT antibody was added to each well and incubated for 30 min at room temperature on a Wallac microtiter plate shaker. The wells were washed using a using a LifeSep 96P (Dexter, Elk Grove Village, Ill.) magnet designed for separating magnetic particles in a microtiter plate format The strip was placed on the magnetic separator for three minutes. The beads had migrated to the side of the well by this time and the supernatant was removed by aspiration. The beads were washed four additional times with 150 μl of Wash Buffer B. The beads were captured, supernatant removed, and resuspended in the PCR reaction mix and amplified as in Example 2, B. The amplified product was analyzed by gel electrophoresis.

Ah receptor [2] = test: Biotinylated ARNT assay, neutravidin capture, PCR and gel densitometry; format: biochemical; conditions: 1 μl of 1 nM beta-naphthoflavone
Method: Activation of the Ah receptor with dose was performed in a microfuge tube containing 50 μl of Ah receptor preparation, 1 μl of 200 μg/ml biotinylated ARNT, and 1 μl of 1 nM beta-naphthoflavone and incubated for 1 hr at 30° C. To minimize non-specific interactions, 1-2 μg of salmon sperm DNA was added to the activated complex, along with NaCl to a final concentration of 60 mM. After 10 min at room temperature, varying amounts of nucleic acid-tracer (50-500 fmole) was added, and the reaction allowed to incubate for an additional 10 min at room temperature. The reaction mix (40 μl) was transferred to a neutravidin-coated plate and incubated for 30 min on a Wallac plate shaker at room temperature. The wells were washed five times with Wash Buffer B, soaking wells for 3 min with wash buffer during each cycle, followed by two washes with ultrapure water.
For PCR analysis, 50 μl of PCR reagent was added and the well contents were subjected to 28 cycles of PCR amplification, using GeneAmp PCR System 2700 (Applied Biosystems, Foster City, Calif.). PCR was performed using 50 μl of PCR Master Mix (Promega, Madison, Wis.) diluted to the appropriate concentration with nuclease-free water and 1 μM of each primer was used per PCR reaction. Following the addition of PCR mix, the microtiter strip was sealed with adhesive and placed in the thermocylcer. Samples were initially heated to 95° C. for 5 min to denature the Ah receptor/ARNT complex and free the nucleic acid for PCR analysis then subjected to 28 cycles of 94° C., 30 sec, 52° C., 30 sec, 72° C., 45 sec, followed by 72° C. for 5 min, then cooling to 4° C.
PCR product, 20 μl, was analyzed by 4% agarose gel electrophoresis, with PCR product visualized under UV light by ethidium bromide staining UV light-illuminated gels were photographed using a Polaroid MP 4 Land Camera and Polaroid Type 55 film. Transmission densitometry with film negatives was performed and areas under the peak calculated using arbitrary units.

AhR [3] = biological target: T1, AhR (Rattus norvegicus, UniProt P41738); test: Receptor capture assay, real-time PCR, AhR derived from rat; format: biochemical
T1 construct: The cytosol containing AhR heteromers was stored at; from tissue; host or cells: liver cytosol of Long-Evans rats
T1 sequence (P41738 10-853): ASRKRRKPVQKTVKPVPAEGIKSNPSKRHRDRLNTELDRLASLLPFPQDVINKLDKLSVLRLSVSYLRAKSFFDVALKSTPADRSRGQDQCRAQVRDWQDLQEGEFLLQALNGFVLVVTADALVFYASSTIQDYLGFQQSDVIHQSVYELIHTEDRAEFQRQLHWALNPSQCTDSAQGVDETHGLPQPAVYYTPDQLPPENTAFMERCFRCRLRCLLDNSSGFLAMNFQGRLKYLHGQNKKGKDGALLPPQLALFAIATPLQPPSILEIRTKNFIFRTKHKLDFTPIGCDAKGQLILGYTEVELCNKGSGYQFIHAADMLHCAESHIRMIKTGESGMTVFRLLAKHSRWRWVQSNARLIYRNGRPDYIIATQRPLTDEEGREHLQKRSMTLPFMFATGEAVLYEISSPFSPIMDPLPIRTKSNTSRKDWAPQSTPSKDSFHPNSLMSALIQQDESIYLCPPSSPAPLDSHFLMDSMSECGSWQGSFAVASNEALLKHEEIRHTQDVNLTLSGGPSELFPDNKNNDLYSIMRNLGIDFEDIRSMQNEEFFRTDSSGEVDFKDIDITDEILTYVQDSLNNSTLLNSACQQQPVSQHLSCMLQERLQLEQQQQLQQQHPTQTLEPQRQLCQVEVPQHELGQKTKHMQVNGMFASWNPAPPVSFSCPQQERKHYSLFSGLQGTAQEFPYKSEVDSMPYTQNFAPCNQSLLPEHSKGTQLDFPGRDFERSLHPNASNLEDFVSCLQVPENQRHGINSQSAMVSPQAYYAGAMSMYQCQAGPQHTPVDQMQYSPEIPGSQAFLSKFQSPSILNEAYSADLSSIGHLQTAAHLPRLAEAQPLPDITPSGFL
T1 sequence (P41739 whole entry partner): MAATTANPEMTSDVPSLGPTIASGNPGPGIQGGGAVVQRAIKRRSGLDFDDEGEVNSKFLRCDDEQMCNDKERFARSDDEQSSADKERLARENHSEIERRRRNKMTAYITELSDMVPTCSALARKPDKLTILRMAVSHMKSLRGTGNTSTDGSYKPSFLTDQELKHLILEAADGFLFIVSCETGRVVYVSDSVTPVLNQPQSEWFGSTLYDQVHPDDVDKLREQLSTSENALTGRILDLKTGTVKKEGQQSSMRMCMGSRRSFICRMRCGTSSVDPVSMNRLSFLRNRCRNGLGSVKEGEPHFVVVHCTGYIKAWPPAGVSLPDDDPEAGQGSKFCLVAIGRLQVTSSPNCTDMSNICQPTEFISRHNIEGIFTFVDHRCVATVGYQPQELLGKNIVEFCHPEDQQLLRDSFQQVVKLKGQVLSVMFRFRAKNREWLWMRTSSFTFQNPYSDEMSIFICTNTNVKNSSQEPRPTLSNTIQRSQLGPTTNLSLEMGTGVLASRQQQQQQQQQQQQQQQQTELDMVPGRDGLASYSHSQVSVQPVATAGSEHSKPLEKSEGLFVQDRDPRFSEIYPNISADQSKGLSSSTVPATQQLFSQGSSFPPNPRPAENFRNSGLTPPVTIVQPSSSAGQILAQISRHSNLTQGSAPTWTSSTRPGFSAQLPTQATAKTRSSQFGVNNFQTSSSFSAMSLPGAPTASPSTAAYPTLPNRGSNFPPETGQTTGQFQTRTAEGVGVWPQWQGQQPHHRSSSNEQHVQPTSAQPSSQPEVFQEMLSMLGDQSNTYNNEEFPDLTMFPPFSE
Method: A set of calibrators consisting of 5000, 2500, 1250, 626, 313, 156, and 78 parts per trillion (ppt or pg/ml) 2,3,7,8-tetrachlorodibenzo-p-dioxin (TCDD) was prepared in methanol. In addition to TCDD a set of calibrators for AhR agonist, beta-naphthoflavone (BNF) was prepared and analyzed in the assay. Separately, 25 ul of 1:50,000 dilution of 10 uM stock nucleic acid-tracer was added per 1 ml of rodent cytosol, which was the source of AhR, and was aliquoted into glass tubes. The standards were diluted 1:20 into 50-100 ul of rodent cytosol, and incubated for 1-2 hr at room temperature to 37° C. Following incubation, 40 to 100 ul of the reaction was transferred to each well of the antibody-coated Capture Strip and incubated on a shaking platform for 30 min to 1 hr at room temperature. The Capture Strips were washed 5 times with Wash Buffer B, and aspirated; optionally soaking wells for 30 sec-5 min with wash buffer during each cycle. Taqman® Universal PCR Master Mix, primers, and Taqman® probe (Applied Biosystems, Calif.) were added, and adhesive cover applied. PCR was performed and analyzed using an ABI PRISM® 7700, using default settings: 50° C., 2 min, 95° C. […] A threshold cycle (Ct) was determined for each reaction The Ct represents the PCR cycle at which an increase in reporter fluorescence above baseline signal can first be detected.

AhR [4] = biological target: T2, AhR (Homo sapiens, UniProt P35869); conditions: Van den Berg et al., 1998; cited from earlier work
T2 sequence (P35869 11-848): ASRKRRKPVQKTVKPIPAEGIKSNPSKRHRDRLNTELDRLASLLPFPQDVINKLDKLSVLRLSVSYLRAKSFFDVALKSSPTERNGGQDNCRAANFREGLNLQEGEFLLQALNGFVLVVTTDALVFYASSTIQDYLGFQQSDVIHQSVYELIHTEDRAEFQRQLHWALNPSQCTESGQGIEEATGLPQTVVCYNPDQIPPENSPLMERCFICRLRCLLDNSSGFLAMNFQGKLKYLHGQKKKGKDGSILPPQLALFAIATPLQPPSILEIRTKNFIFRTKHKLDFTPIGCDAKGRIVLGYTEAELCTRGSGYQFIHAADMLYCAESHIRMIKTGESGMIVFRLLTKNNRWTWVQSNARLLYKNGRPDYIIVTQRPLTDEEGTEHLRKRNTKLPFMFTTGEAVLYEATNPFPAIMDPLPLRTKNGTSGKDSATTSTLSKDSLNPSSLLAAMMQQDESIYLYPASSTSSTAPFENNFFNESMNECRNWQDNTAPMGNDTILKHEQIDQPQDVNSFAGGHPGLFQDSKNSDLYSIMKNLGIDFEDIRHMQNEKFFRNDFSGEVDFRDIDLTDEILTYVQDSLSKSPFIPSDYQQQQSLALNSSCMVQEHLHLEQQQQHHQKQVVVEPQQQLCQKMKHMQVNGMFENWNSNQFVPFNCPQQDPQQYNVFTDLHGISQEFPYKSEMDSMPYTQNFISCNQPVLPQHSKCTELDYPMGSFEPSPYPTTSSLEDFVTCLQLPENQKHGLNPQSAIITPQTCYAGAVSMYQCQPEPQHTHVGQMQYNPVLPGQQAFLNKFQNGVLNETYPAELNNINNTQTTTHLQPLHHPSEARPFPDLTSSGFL

Structure (SMILES) | amplified DNA over DMSO vehicle controls (gel electrophoresis) (Ah receptor [1]) | area under the peak, PCR product densitometry (Ah receptor [2]; Nucleic Acid-Tracer 63 fmol) | area under the peak, PCR product densitometry (Ah receptor [2]; Nucleic Acid-Tracer 125 fmol) | area under the peak, PCR product densitometry (Ah receptor [2]; Nucleic Acid-Tracer 250 fmol) | area under the peak, PCR product densitometry (Ah receptor [2]; Nucleic Acid-Tracer 500 fmol) | slope of dose-response curve (AhR [3]) | EC50 of dose-response curve (AhR [3]; pg of TCDD in the assay) | toxic equivalency factor (TEF) value (AhR [4])
O=c1cc(-c2ccccc2)oc2ccc3ccccc3c12 [BNF, beta-naphthoflavone] | significant increase in DNA | 459 arbitrary units | 349 arbitrary units | 392 arbitrary units | 392 arbitrary units | – | – | –
Clc1cc2c(cc1Cl)Oc1cc(Cl)c(Cl)cc1O2 [TCDD, 2,3,7,8-tetrachlorodibenzo-p-dioxin] | – | – | – | – | – | −1.208 | 2.8 pg | 1
